# Measured values: patent publication US8722665B2, “Cinnamido-pyrrolo[2,1-C][1,4]benzodiazepines as potential anticancer agents and process for the preparation thereof” (Council of Scientific & Industrial Research, priority 2008, dated 2014)
# Assays:
# Type in all cases: cell-based, human
# [1] = test system: MDA-MB-231/ATCC; assay: In vitro cytotoxicity (SRB); conditions: MDA-MB-231/ATCC (Breast); 48 h continuous drug exposure
# Protocol: (§1) The compounds were evaluated for in vitro anticancer activity against sixty human tumour cells derived from nine cancer types (leukemia, non-small-cell lung, colon, CNS, melanoma, ovarian, prostate, and breast cancer) as shown in Table 1a. For each compound, dose response curves for each cell line were measured at a minimum of five concentrations at 10 fold dilutions. A protocol of 48 h continuous drug exposure was used and a sulforhodamine B (SRB) protein assay was used to estimate cell viability or growth. The concentration causing 50% cell growth inhibition (GI50), total cell growth inhibition (TGI 0% growth) and 50% cell death (LC50, −50% growth) compared with the control was calculated. The Log10 GI50 (concentration in mol/L causing 50% growth inhibition) values for Cinnamido-pyrrolo[2,1-c][1,4]benzodiazepine (8b) is listed in Table 2.
# [2] = test system: EKVX; assay: In vitro cytotoxicity (SRB); conditions: EKVX (Non-small cell lung); 48 h continuous drug exposure
# Protocol: as §1
# [3] = test system: HCC-2998; assay: In vitro cytotoxicity (SRB); conditions: HCC-2998 (Colon); 48 h continuous drug exposure
# Protocol: as §1
# [4] = test system: UO-31; assay: In vitro cytotoxicity (SRB); conditions: UO-31 (Renal); 48 h continuous drug exposure
# Protocol: as §1
# [5] = test system: PC-3; assay: In vitro cytotoxicity (SRB); conditions: PC-3 (Prostate); 48 h continuous drug exposure
# Protocol: as §1
# [6] = test system: NCI/ADR-RES; assay: In vitro cytotoxicity (SRB); conditions: NCI/ADR-RES (Breast); 48 h continuous drug exposure
# Protocol: as §1
# [7] = test system: SNB-75; assay: In vitro cytotoxicity (SRB); conditions: SNB-75 (CNS); 48 h continuous drug exposure
# Protocol: as §1
# [8] = test system: HS 578T; assay: In vitro cytotoxicity (SRB); conditions: HS 578T (Breast); 48 h continuous drug exposure
# Protocol: as §1
# [9] = test system: OVCAR-4; assay: In vitro cytotoxicity (SRB); conditions: OVCAR-4 (Ovarian); 48 h continuous drug exposure
# Protocol: as §1
# [10] = test system: T-47D; assay: In vitro cytotoxicity (SRB); conditions: T-47D (Breast); 48 h continuous drug exposure
# Protocol: as §1
# [11] = test system: SK-MEL-5; assay: In vitro cytotoxicity (SRB); conditions: SK-MEL-5 (Melanoma); 48 h continuous drug exposure
# Protocol: as §1
# [12] = test system: NCI-H226; assay: In vitro cytotoxicity (SRB); conditions: NCI-H226 (Non-small cell lung); 48 h continuous drug exposure
# Protocol: as §1
# [13] = test system: LOX IMVI; assay: In vitro cytotoxicity (SRB); conditions: LOX IMVI (Melanoma); 48 h continuous drug exposure
# Protocol: as §1
# [14] = test system: A549/ATCC; assay: In vitro cytotoxicity (SRB); conditions: A549/ATCC (Non-small cell lung); 48 h continuous drug exposure
# Protocol: as §1
# [15] = test system: DU-145; assay: In vitro cytotoxicity (SRB); conditions: DU-145 (Prostate); 48 h continuous drug exposure
# Protocol: as §1
# [16] = test system: BT-549; assay: In vitro cytotoxicity (SRB); conditions: BT-549 (Breast); 48 h continuous drug exposure
# Protocol: as §1
# [17] = test system: IGROV1; assay: In vitro cytotoxicity (SRB); conditions: IGROV1 (Ovarian); 48 h continuous drug exposure
# Protocol: as §1
# [18] = test system: NCI-H322M; assay: In vitro cytotoxicity (SRB); conditions: NCI-H322M (Non-small cell lung); 48 h continuous drug exposure
# Protocol: as §1
# [19] = test system: HL-60(TB); assay: In vitro cytotoxicity (SRB); conditions: HL-60(TB) (Leukemia); 48 h continuous drug exposure
# Protocol: as §1
# [20] = test system: SF-539; assay: In vitro cytotoxicity (SRB); conditions: SF-539 (CNS); 48 h continuous drug exposure
# Protocol: as §1
# [21] = test system: OVCAR-5; assay: In vitro cytotoxicity (SRB); conditions: OVCAR-5 (Ovarian); 48 h continuous drug exposure
# Protocol: as §1
# [22] = test system: TK-10; assay: In vitro cytotoxicity (SRB); conditions: TK-10 (Renal); 48 h continuous drug exposure
# Protocol: as §1
# [23] = test system: MOLT-4; assay: In vitro cytotoxicity (SRB); conditions: MOLT-4 (Leukemia); 48 h continuous drug exposure
# Protocol: as §1
# [24] = test system: SF-295; assay: In vitro cytotoxicity (SRB); conditions: SF-295 (CNS); 48 h continuous drug exposure
# Protocol: as §1
# [25] = test system: Colon cell lines; assay: In vitro cytotoxicity (SRB), cancer panel; conditions: average of six to eight cell lines, 48 h exposure
# Protocol: as §1
# [26] = test system: CNS cell lines; assay: In vitro cytotoxicity (SRB), cancer panel; conditions: average of six to eight cell lines, 48 h exposure
# Protocol: as §1
# [27] = test system: Melanoma cell lines; assay: In vitro cytotoxicity (SRB), cancer panel; conditions: average of six to eight cell lines, 48 h exposure
# Protocol: as §1
# [28] = test system: Renal cell lines; assay: In vitro cytotoxicity (SRB), cancer panel; conditions: average of six to eight cell lines, 48 h exposure
# Protocol: as §1
# [29] = test system: Prostate cell lines; assay: In vitro cytotoxicity (SRB), cancer panel; conditions: average of six to eight cell lines, 48 h exposure
# Protocol: as §1
# [30] = test system: Ovarian cell lines; assay: In vitro cytotoxicity (SRB), cancer panel; conditions: average of six to eight cell lines, 48 h exposure
# Protocol: as §1
# [31] = test system: Breast cell lines; assay: In vitro cytotoxicity (SRB), cancer panel; conditions: average of six to eight cell lines, 48 h exposure
# Protocol: as §1
# [32] = test system: Leukemia cell lines; assay: In vitro cytotoxicity (SRB), cancer panel; conditions: average of six to eight cell lines, 48 h exposure
# Protocol: as §1
# [33] = test system: Non-small-cell lung cell lines; assay: In vitro cytotoxicity (SRB), cancer panel; conditions: average of six to eight cell lines, 48 h exposure
# Protocol: as §1
smiles,measurement,setting,value
"COc1cc(/C=C/C(=O)N2CCN(C(=O)c3cc(OC)c(OC)c(OC)c3)CC2)ccc1OCCCOc1cc2c(cc1OC)C(=O)N1CCC[C@H]1C=N2 [8b, 7-methoxy-8-{3-(2-methoxy-4-(E)-3-oxo-3-[4-(3,4,5-trimethoxybenzoyl)piperazino]-1-propenylphenoxy)propoxy}-(11aS)-2,3,5,11^a-tetrahydro-5H-pyrrolo[2,1-c][1,4]benzo-diazepine-5-one]",GI50,[1],230 nM
same,GI50,[2],860 nM
same,GI50,[3],360 nM
same,GI50,[4],1150 nM
same,GI50,[5],340 nM
same,GI50,[6],1470 nM
same,GI50,[7],260 nM
same,GI50,[8],310 nM
same,GI50,[9],2200 nM
same,GI50,[10],150 nM
same,GI50,[11],190 nM
same,GI50,[12],250 nM
same,GI50,[13],180 nM
same,GI50,[14],480 nM
same,GI50,[15],360 nM
same,GI50,[16],130 nM
same,GI50,[17],270 nM
same,GI50,[18],3070 nM
same,GI50,[19],250 nM
same,GI50,[20],250 nM
same,GI50,[21],290 nM
same,GI50,[22],690 nM
same,GI50,[23],200 nM
same,GI50,[24],10 nM
same,Log10 GI50,[25],−6.43 mol/L
same,Log10 GI50,[26],−6.78 mol/L
same,Log10 GI50,[27],−6.64 mol/L
same,Log10 GI50,[28],−6.20 mol/L
same,Log10 GI50,[29],−6.44 mol/L
same,Log10 GI50,[30],−6.36 mol/L
same,Log10 GI50,[31],−6.51 mol/L
same,Log10 GI50,[32],−6.77 mol/L
same,Log10 GI50,[33],−6.31 mol/L
